Data set [1] in a line: Molar enthalpy of transition or fusion. The note with it: Crystal; DSC.
The conditions of data set [2]: Crystal; DSC.

Experimental findings from the NIST ThermoML archive (doi:10.1016/j.jct.2019.06.009) are described below.

± gives the expanded uncertainty stated by the source.

For `C=NCC#N` [methyleneaminoacetonitrile], the “Molar enthalpy of transition or fusion” value in data set [1] is 2.53 ± 0.239 kcal/mol. For the same compound, the Triple point temperature in data set [2] is listed as 400.19 ± 2.1 K.
